Source: patent US20080287396A1, “Phosphonated Fluoroquinolones, Antibacterial Analogs Thereof, and Methods for the Prevention and Treatment of Bone and Joint Infections” (TARGANTA THERAPEUTICA INC., priority 2005, published 2008)
Read-outs that look alike come from different tables or passages of the source.

Assays:
[1] = Bone powder binding, fluorometric detection; details: 1 mg/ml compound, bone meal powder 10 mg/ml in PBS, 37° C., 1 h
In short: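 LC/MS method: 100 μM compound in 0.1 M Tris-HCl pH 7, 0.15 M NaCl shaken 10 min with or without ground rat tibia, centrifuged, unbound compound measured in supernatant. Fluorometric method: 1 mg/ml compound in 10 mg/ml bone meal/PBS, 1 h at 37 °C, pellet washed. Supernatant fluoroquinolone read at 280/465 nm; bound amount taken as input minus recovered.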

[2] = Levels of bisphosphonated prodrugs in rat tibia in vivo; details: for half-life: female, CD, tibia (bone); for concentration of prodrug present in bone, in words: single IV bolus (49: 18.8; 52: 15.8; 54: 17.4 mg/kg)
Description: In order to investigate the bone binding and rate of decomposition of bisphosphonated fluoroquinolone prodrugs in vivo, rats were treated with bisphosphonated moxifloxacin prodrug 52 or bisphosphonated gatifloxacin prodrug 49 or 54 and the drug content of their tibiae was analyzed at different time points after injection. Female CD rats (age, 57 to 70 days; n=5/group; Charles River, St-Constant, Canada) were administered a single bolus intravenous (tail vein) dose of compound 49, 52 or 54 (dissolved in 0.85% NaCl) at respectively 18.8 mg/kg (equivalent to 9 mg/kg of 15), 15.8 mg/kg (equivalent to 10 mg/kg of 3) and 17.4 mg/kg (equivalent to 10 mg/kg of 15) of body weight. Animals were humanely sacrificed at specified time points after i.v. dosing to evaluate the levels of 49, 52 or 54 in the bone. Tibiae were recovered by dissection, cleaned from soft tissues, ground using a metal ball mill (Retsch MM301™) and kept at −80° C. before determination of the drug concentration of the bone.
The experimentally obtained ground bone powder was suspended in 5% formic acid in methanol (500 mg/1.6 mL). The mixture was vortexed for 10 min and centrifuged for 10 min at 10 000 g. The resulting pellet was dried, weighed and used for the determination of the amount of bisphosphonated prodrug.
For the dosage of the prodrug in the tibia, the standards, QCs (Quality Controls) and blanks were prepared (in duplicate) as follows: to 20 mg of dry blank tibia powder were added a spiking solution (10 μL) of prodrug and 990 μL of buffer (0.1M tris-HCl, pH 7, 0.15M NaCl); the mixture was vortexed for 10 min (RT), centrifuged for 15 min at 10 000 g (RT), the supernatant discarded and the pellet kept for the cleavage procedure. The range of the standards (6 levels) was from 0.05 to 10 μM and the QC levels were 0.075, 0.75 and 7.5 μM.
To each standard, QC, blank and experimental sample tibia bone pellet (20 mg of dry weight) was added 500 μL 6N NaOH for the cleavage of the prodrug into the drug (moxifloxacin 3 or gatifloxacin 15). After an incubation at 50° C. for 1 hour (for 49) or 2 hours (for 52 and 54), the mixture was acidified with 6N HCl (500 μL) and the internal standard (gatifloxacin 15 for 52 and moxifloxacin 3 for 49 and 54) was added. After a centrifugation of 15 min at 10 000 g (RT), the supernatant was extracted on a Strata™ cartridge (30 mg/l ml), using 100% methanol as the eluent. The eluent was evaporated to dryness under a stream of argon and the dried residue was reconstituted in 200 μL of the mobile phase used in the LC/MS analysis by vortexing for 15 min. After centrifugation for 15 min at 10 000 g, 20 μL of the supernatant was injected into the LC/MS analyser.
The quantity of drug resulting from the cleavage of the prodrug was analyzed on an Agilent 1100™ series LC/MSD trap. The supernatant was injected into a Zorbax™ SB-Aq column (2×30 mm, 3.5μ), using 0.1% formic acid in water: 0.1% formic acid in acetonitrile (85:15) as the mobile phase at a flow rate of 0.3 mL/min. […] The detected ions were determined in single reaction mode (SRM).
For the determination of 52, moxifloxacin 3 was analyzed for m/z 402.2 and the internal standard (gatifloxacin 15) for m/z 376.1→332.1.
For the determination of 49 and 54, gatifloxacin 15 was analyzed for m/z 376.1→332.1 and the internal standard (moxifloxacin 3) was analyzed for m/z 402.2.

[3] = rat, single IV bolus (52: 15.8 mg/kg; 54: 17.4 mg/kg), 7-28 days after injection, read-out: half-life of prodrug in bone (tibia) (converted)

| Structure (SMILES) | Binding to bone (%) Fluorescence [1] | half-life ([2]; rat tibia, IV bolus 15.8 mg/kg, 5 min to 24 h, read-out: half-life for the accumulation process in bone) | half-life [2, 3] | concentration of prodrug present in bone, in words ([2]; rat tibia) |
| --- | --- | --- | --- | --- |
| COc1c(N2C[C@@H]3CCCN[C@@H]3C2)c(F)cc2c(=O)c(C(=O)OCC(=O)NC(P(=O)(O)O)P(=O)(O)O)cn(C3CC3)c12 [Compound 52, (1,1-Bisphosphonomethylcarbamoyl)methyl 1-cyclopropyl-6-fluoro-1,4-dihydro-7-((4aS,7aS)-octahydropyrrolo[3,4-b]pyridin-6-yl)-8-methoxy-4-oxoquinoline-3-carboxylate] | 98.7% | < 0.0417 days | 20 days | high concentrations |
| COc1c(N2CCNC(C)C2)c(F)cc2c(=O)c(C(=O)OCC(=O)NC(P(=O)(O)O)P(=O)(O)O)cn(C3CC3)c12 (stereo not shown) [Compound 54, (1,1-Bisphosphonomethylcarbamoyl)methyl 7-(3-methylpiperazin-1-yl)-1-cyclopropyl-6-fluoro-1,4-dihydro-8-methoxy-4-oxoquinoline-3-carboxylate] | 91% |  | 21 days | high concentrations |
